Assay [1] deals with phospho-AKT at S473 in KPL4 breast tumour cell line. As to the kind of experiment: Cellular p-AKT1/2/3-S473 assay. Type of assay: cell-based. Conditions: KPL4 cells, 2 hours treatment; median; read-out: pAKT-S743 median IC50. Here is the method:
The molecular mechanism of action was investigated in a set of experiments to assess the inhibition of the PI3K-AKT-mTOR pathway in responsive cell lines such as KPL4 breast tumour cell line (PIK3CAH1047R, HER2O/E and hormone independent). The phospho-substrates of PI3K-AKT-mTOR axis were used as the read-outs to reflect pathway inhibition. Cells were seeded at 60-80% confluency per well in 96-well cell culture plates. After overnight incubation at 37° C. 5% CO2, cells were treated with compounds and vehicle at 37° C. for 2 hours. […] All measurements where at least done in duplicates and confirmed by independent repetition.
Alternatively pAKT-S473 was measured using the “Akt Duplex” of the MULTI-SPOT® Assay System (Fa. Meso Scale Discovery, Cat# N41100B-1) following manufacturers instructions. Each assay used 20 μg of protein extract and measured total AKT and p-AKT content simultaneously in one well. All measurements where at least done in duplicates and confirmed by independent repetition. Values for P-AKT are expressed as percentage of P-AKT level compared to total-AKT content of the extracts.

The target of assay [2] is His-tagged human recombinant kinase full-length Akt1 (Homo sapiens (Human), UniProt P31749). As to the kind of experiment: Akt1 kinase assay (TR-FRET). Conditions: 10 μM ATP; median. It is filed as biochemical. An excerpt: Akt1 inhibitory activity of compounds of the present invention was quantified employing the Akt1 TR-FRET assay as described in the following paragraphs. His-tagged human recombinant kinase full-length Akt1 expressed in insect cells was purchased form Invitrogen (part number PV 3599). As substrate for the kinase reaction the biotinylated peptide biotin-Ahx-[…] (C-terminus in amide form) was used which can be purchased e.g. from the company Biosynthan GmbH (Berlin-Buch, Germany).
(§1) For the assay 50 nl of a 100 fold concentrated solution of the test compound in DMSO was pipetted into a black low volume 384 well microtiter plate (Greiner Bio-One, Frickenhausen, Germany), 2 μl of a solution of Akt1 in assay buffer [50 mM TRIS/HCl pH 7.5, 5 mM MgCl2, 1 mM dithiothreitol, 0.02% (v/v) Triton X-100 (Sigma)] were added and the mixture was incubated for 15 min at 22° C. to allow pre-binding of the test compounds to the enzyme before the start of the kinase reaction. Then the kinase reaction was started by the addition of 3 μl of a solution of adenosine-tri-phosphate (ATP, 16.7 μM=>final conc. in the 5 μl assay volume is 10 μM) and substrate (1.67 μM=>final conc. in the 5 μl assay volume is 1 μM) in assay buffer and the resulting mixture was incubated for a reaction time of 60 min at 22° C. The concentration of Akt1 in the assay was adjusted depending of the activity of the enzyme lot and was chosen appropriate to have the assay in the linear range, typical enzyme concentrations were in the range of about 0.05 ng/μl (final conc. in the 5 μl assay volume).
The reaction was stopped by the addition of 5 μl of a solution of HTRF detection reagents (200 nM streptavidine-XL665 [Cisbio] and 1.5 nM anti-phosho-Serine antibody [Millipore, cat. #35-001] and 0.75 nM LANCE Eu-W 1024 labeled anti-mouse IgG antibody [Perkin Elmer]) in an aqueous EDTA-solution (100 mM EDTA, 0.1% (w/v) bovine serum albumin in 50 mM HEPES/NaOH pH 7.5).
(§2) The resulting mixture was incubated 1 h at 22° C. to allow the binding of the biotinylated phosphorylated peptide to the streptavidine-XL665 and the antibodies. Subsequently the amount of phosphorylated substrate was evaluated by measurement of the resonance energy transfer from the anti-mouse-IgG-Eu-Chelate to the streptavidine-XL665. Therefore, the fluorescence emissions at 620 nm and 665 nm after excitation at 350 nm was measured in a HTRF reader, e.g. a Rubystar (BMG Labtechnologies, Offenburg, Germany) or a Viewlux (Perkin-Elmer). The ratio of the emissions at 665 nm and at […] was taken as the measure for the amount of phosphorylated substrate. The data were normalised (enzyme reaction without inhibitor=0% inhibition, all other assay components but no enzyme=100% inhibition).

The test system of assay [3] is KPL-4 cells. Put plainly: Tumor cell proliferation assay (CellTiter-Glo). Type of assay: cell-based. The settings on record: KPL4; 72 h drug exposure. Here is the method:
Compounds were tested in a cell-based assay that measures the capacity of the compounds to inhibit tumour cell proliferation following a 72 h drug exposure. Cell viability is determined using CellTiter-Glow® (CTG, Promega, cat# G757112/3). The CellTiter-Glo® Luminescent Cell Viability Assay is a homogeneous method to determine the number of viable cells in culture. Detection is based on using the luciferase reaction to measure the amount of ATP from viable cells. The amount of ATP in cells correlates with cell viability. Within minutes after a loss of membrane integrity, cells lose the ability to synthesize ATP, and endogenous ATPases destroy any remaining ATP; thus the levels of ATP fall precipitously.
Cells were plated at 3000-5000 cells/well (depending on the cell lines) in 90 μL growth medium on MTPs (Corning; #3603, black plate, clear flat bottom). For each cell line assayed, cells were plated onto a separate plate for determination of […] at t=0 hour and t=72 hour time points. Following overnight incubation at 37° C., chemiluminescence values for the t=0 samples were determined after adding 10 μl medium and 100 μl CTG solution according to manufacture protocol. Plates for the t=72 hour time points were treated with compounds diluted into growth medium at ten times final concentration added in 10 μL to the cell culture plate. Cells were then incubated for 72 hours at 37° C. Chemiluminescence values for the t=72 hour samples were determined. For data analysis, briefly, data from 24 h plate where used to reflect 100% inhibition of growth (“Ci”) and DMSO control for uninhibited growth (“C0”) and analyzed using MTS software package for IC50 and Hill coefficient. Experiments were controlled using a reference compound as standard.

Assay [4] deals with His-tagged human recombinant kinase full-length Akt2 (Homo sapiens (Human), UniProt P31751). Put plainly: Akt2 kinase assay (TR-FRET). Type of assay: biochemical. The settings on record: 10 μM ATP; median.
Excerpt: Akt2 inhibitory activity of compounds of the present invention was quantified employing the Akt2 TR-FRET assay as described in the following paragraphs.
His-tagged human recombinant kinase full-length Akt2 expressed in insect cells and activated by PDK1 was purchased form Invitrogen (part number PV 3975). As substrate for the kinase reaction the biotinylated peptide biotin-Ahx-[…] (C-terminus in amide form) was used which can be purchased e.g. from the company Biosynthan GmbH (Berlin-Buch, Germany).
as §1, with “Akt2” for “Akt1”, “0.2” for “0.05”
The reaction was stopped by the addition of 5 μl of a solution of HTRF detection reagents (200 nM streptavidine-XL665 [Cisbio] and 1.5 nM anti-phosho-Serine antibody [Millipore, cat. #35-001] and 0.75 nM LANCE Eu-W 1024 labeled anti-mouse IgG antibody [Perkin Elmer]) in an aqueous EDTA-solution (100 mM EDTA, 0.1%/w/v\ bovine serum albumin in 50 mM HEPES/NaOH pH 7.5).
as §2, with “TR-FRET” for “HTRF”

Each structure is given as a SMILES string. Structures can show the parent of a compound that is named as a salt.

His-tagged human recombinant kinase full-length Akt2, sequence (P31751 whole entry): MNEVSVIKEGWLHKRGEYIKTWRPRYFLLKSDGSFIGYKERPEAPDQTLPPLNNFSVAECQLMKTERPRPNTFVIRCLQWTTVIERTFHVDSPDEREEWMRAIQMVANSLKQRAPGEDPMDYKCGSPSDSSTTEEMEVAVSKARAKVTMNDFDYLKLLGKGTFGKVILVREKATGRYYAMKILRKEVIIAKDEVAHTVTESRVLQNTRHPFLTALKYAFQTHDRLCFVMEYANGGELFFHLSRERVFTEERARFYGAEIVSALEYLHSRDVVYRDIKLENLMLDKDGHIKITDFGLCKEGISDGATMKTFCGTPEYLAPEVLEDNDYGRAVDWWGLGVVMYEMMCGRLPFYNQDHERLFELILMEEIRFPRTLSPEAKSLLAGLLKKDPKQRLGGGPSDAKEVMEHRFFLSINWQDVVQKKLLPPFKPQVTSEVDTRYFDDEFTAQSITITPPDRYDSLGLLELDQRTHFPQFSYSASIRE
His-tagged human recombinant kinase full-length Akt1, sequence (P31749 whole entry): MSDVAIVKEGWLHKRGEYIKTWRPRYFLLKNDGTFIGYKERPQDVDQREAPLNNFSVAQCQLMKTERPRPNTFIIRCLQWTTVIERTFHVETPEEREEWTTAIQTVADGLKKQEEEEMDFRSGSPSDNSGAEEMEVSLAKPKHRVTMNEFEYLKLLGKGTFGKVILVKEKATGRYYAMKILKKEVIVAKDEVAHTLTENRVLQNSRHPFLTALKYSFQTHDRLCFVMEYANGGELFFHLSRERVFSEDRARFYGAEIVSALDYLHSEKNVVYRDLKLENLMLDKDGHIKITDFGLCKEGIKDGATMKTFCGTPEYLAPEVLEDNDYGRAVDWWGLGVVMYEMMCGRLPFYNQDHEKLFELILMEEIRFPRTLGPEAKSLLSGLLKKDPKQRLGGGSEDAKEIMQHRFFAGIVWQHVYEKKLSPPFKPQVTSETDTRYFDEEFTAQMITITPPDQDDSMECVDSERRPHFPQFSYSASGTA

Consider `Cc1cc(-c2c(C)nc3cc(-c4ccccc4)c(-c4ccc(C5(N)CCC5)cc4)nn23)[nH]n1` [Example 5-6, 1-{4-[2-Methyl-7-phenyl-3-(5-methyl-2H-pyrazol-3-yl)-imidazo[1,2-b]pyridazin-6-yl]-phenyl}-cyclobutylamine], for which the IC50 is 10000 nM in assay [1], 14900 nM in assay [2], 9220 nM in assay [3] and 17200 nM in assay [4].
In the case of `NC(=O)c1ccc(-c2cnc3cc(-c4ccccc4)c(-c4ccc(C5(N)CCC5)cc4)nn23)cc1` [Example 4-10, 4-{6-[4-(1-Amino-cyclobutyl)-phenyl]-7-phenyl-imidazo[1,2-b]pyridazin-3-yl}-benzamide hydrochloride], the IC50 in assay [1] came out at 70 nM; in assay [2], 27 nM; in assay [3] it was 1260 nM; in assay [4], 118 nM.
For the compound `N#Cc1cccc(-c2cnc3cc(-c4ccccc4)c(-c4ccc(C5(N)CCC5)cc4)nn23)c1` [Example 3-0, 3-{6-[4-(1-Amino-cyclobutyl)-phenyl]-7-phenyl-imidazo[1,2-b]pyridazin-3-yl}-benzonitrile], the IC50 is 1550 nM in assay [1], 5 nM in assay [2], 1710 nM in assay [3] and 82 nM in assay [4].
`C=Cc1cnc2cc(-c3ccccc3)c(-c3ccc(C4(N)CCC4)cc3)nn12` [Example 9-0, 1-[4-(7-Phenyl-3-vinyl-imidazo[1,2-b]pyridazin-6-yl)-phenyl]-cyclobutylamine]: the IC50 in assay [1] was determined as 30 nM; in assay [2] it was 44 nM; in assay [3], 1870 nM; in assay [4], 326 nM.
Taken in the same sequence, the figures for `Cc1nc2cc(-c3ccccc3)c(-c3ccc(C4(N)CCC4)cc3)nn2c1-c1cccc(C(N)=O)c1` [Example 5-0, 3-{6-[4-(1-Amino-cyclobutyl)-phenyl]-2-methyl-7-phenyl-imidazo[1,2-b]pyridazin-3-yl}-benzamide] were 10000 nM, 15000 nM, 3850 nM and 16800 nM.
Take `NC1(c2ccc(-c3nn4c(-c5ccc(CO)cc5)cnc4cc3-c3ccccc3)cc2)CCC1` [Example 4-6, (4-{6-[4-(1-Amino-cyclobutyl)-phenyl]-7-phenyl-imidazo[1,2-b]pyridazin-3-yl}-phenyl)-methanol formiate]: the IC50 in assay [1] worked out at 30 nM; in assay [2], 19 nM; in assay [3], 1590 nM; in assay [4] it was 123 nM.
With `Cc1cn2nc(-c3ccc(C4(N)CCC4)cc3)c(-c3ccccc3)cc2n1` [Example 1-1, 1-[4-(2-Methyl-7-phenyl-imidazo[1,2-b]pyridazin-6-yl)-phenyl]-cyclobutylamine hydrochloride], the IC50 in assay [1] was 10000 nM; in assay [2], 17300 nM; in assay [3] it was 10000 nM; in assay [4], 20000 nM.
Regarding `NC1(c2ccc(-c3nn4c(-c5cccc(CO)c5)cnc4cc3-c3ccccc3)cc2)CCC1` [Example 4-5, (3-{6-[4-(1-Amino-cyclobutyl)-phenyl]-7-phenyl-imidazo[1,2-b]pyridazin-3-yl}-phenyl)-methanol], the 50% inhibitory concentration (IC50) in assay [1] is 30 nM; in assay [2], 6 nM; in assay [3], 1310 nM; in assay [4] it was 37 nM.
On the same counts, the results for `Cc1nc2cc(-c3ccccc3)c(-c3ccc(C4(N)CCC4)cc3)nn2c1-c1ccc(F)c(CO)c1` [Example 5-1, (5-{6-[4-(1-Amino-cyclobutyl)-phenyl]-2-methyl-7-phenyl-imidazo[1,2-b]pyridazin-3-yl}-2-fluorophenyl)-methanol] are 10000 nM, 10100 nM, 2110 nM and 16700 nM.
Taken in the same sequence, the figures for `NC1(c2ccc(-c3nn4c(-c5ccc(F)c(CO)c5)cnc4cc3-c3ccccc3)cc2)CCC1` [Example 4-9, (5-{6-[4-(1-Amino-cyclobutyl)-phenyl]-7-phenyl-imidazo[1,2-b]pyridazin-3-yl}-2-fluorophenyl)-methanol hydrochloride] were 40 nM, 9 nM, 1560 nM and 92 nM.

The values above are taken from US8987273B2, “Substituted imidazo[1,2-B]pyridazines” (Bayer Intellectual Property GmbH, priority 2010, dated 2015).
